Results as given in patent US11401286B2 (Tetra Discovery Partners, LLC, priority 2012, dated 2022).
Counter-ions that a name gives are not always drawn.

Each compound was assayed against PDE4D7 (Homo sapiens (Human), UniProt Q08499). Conditions: read-out: PDE4D7 IC50.
Chain of PDE4D7 (Q08499 other isoform, or with tags, fused parts or gaps): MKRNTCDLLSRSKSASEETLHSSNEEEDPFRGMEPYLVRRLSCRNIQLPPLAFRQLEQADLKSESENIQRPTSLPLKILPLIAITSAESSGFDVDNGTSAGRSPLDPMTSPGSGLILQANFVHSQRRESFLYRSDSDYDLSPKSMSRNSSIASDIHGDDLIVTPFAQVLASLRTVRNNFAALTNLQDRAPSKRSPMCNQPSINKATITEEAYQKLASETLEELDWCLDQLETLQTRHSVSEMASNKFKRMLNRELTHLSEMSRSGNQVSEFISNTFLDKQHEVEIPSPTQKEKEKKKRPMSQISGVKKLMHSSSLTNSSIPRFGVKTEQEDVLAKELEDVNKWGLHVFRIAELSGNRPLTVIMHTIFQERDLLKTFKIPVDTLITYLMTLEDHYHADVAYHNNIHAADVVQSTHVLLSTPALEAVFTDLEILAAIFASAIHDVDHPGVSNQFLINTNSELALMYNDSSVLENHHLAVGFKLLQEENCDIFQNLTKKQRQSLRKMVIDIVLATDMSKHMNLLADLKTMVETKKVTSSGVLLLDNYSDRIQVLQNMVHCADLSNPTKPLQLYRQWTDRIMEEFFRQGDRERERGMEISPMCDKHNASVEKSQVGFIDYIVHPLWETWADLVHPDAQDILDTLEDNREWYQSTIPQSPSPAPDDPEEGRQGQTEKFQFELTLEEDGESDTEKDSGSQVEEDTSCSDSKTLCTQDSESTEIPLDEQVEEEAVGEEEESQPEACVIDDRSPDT

SMILES | IC50 [nM]
O=C(O)COc1ccc(Nc2cc(-c3cccc(Cl)c3)nc3c2CCC3)cc1 [Example 4, 2-[4-[[2-(3-Chlorophenyl)-6,7-dihydro-5H-cyclopenta[b]pyridin-4-yl]amino]phenoxy]acetic acid] | > 1000

Same assay, conditions: read-out: PDE4D7 IC50; PDE4D7 without asterisk

IC50 [nM] | SMILES
> 1000 | O=C(O)c1ccc(Nc2cc(-c3cccc(Cl)c3)nc3c2CCC3)cc1 [Example 5, 4-[[2-(3-Chlorophenyl)-6,7-dihydro-5H-cyclopenta[b]pyridin-4-yl]amino]benzoic acid]
> 1000 | CCc1c(Nc2ccc(CC(=O)O)cc2)cc(-c2cccc(Cl)c2)nc1C [Example 7, 2-[4-[[6-(3-Chlorophenyl)-3-ethyl-2-methyl-4-pyridyl]amino]phenyl]acetic acid]
> 1000 | O=C(O)CCCc1ccc(Nc2cc(-c3cccc(Cl)c3)nc3c2CCC3)cc1 [Example 8, 4-[4-[[2-(3-Chlorophenyl)-6,7-dihydro-5H-cyclopenta[b]pyridin-4-yl]amino]phenyl]butanoic acid]
> 1000 | Cc1nc(Nc2ccc(F)cc2)nc(-c2ccc(Cl)s2)n1 [Example 23, 4-(5-chlorothiophen-2-yl)-N-(4-fluorophenyl)-6-methyl-1,3,5-triazin-2-amine]
> 1000 | Cc1nc(Nc2ccc(CC(=O)O)cc2)nc(-c2ccco2)n1 [Example 24, 2-(4-((4-(furan-2-yl)-6-methyl-1,3,5-triazin-2-yl)amino)phenyl)acetic acid]
> 1000 | CC(C)c1nc(Nc2ccc(CC(=O)O)cc2)nc(-c2ccc(Cl)s2)n1 [Example 25, 2-(4-((4-(5-chlorothiophen-2-yl)-6-isopropyl-1,3,5-triazin-2-yl)amino)phenyl)acetic acid]
> 1000 | CC(C)c1nc(Nc2ccc(F)cc2)nc(-c2ccc(Cl)s2)n1 [Example 26, 4-(5-chlorothiophen-2-yl)-N-(4-fluorophenyl)-6-isopropyl-1,3,5-triazin-2-amine]
> 1000 | CCc1nc(Nc2ccc(CC(=O)O)cc2)nc(-c2ccc(Cl)s2)n1 [Example 27, 2-(4-((4-(5-chlorothiophen-2-yl)-6-ethyl-1,3,5-triazin-2-yl)amino)phenyl)acetic acid]
> 1000 | CCc1nc(Nc2ccc(F)cc2)nc(-c2ccc(Cl)s2)n1 [Example 28, 4-(5-chlorothiophen-2-yl)-6-ethyl-N-(4-fluorophenyl)-1,3,5-triazin-2-amine]
< 1000 | CC(C)c1nc(Nc2ccc(C(=O)O)cc2)nc(-c2ccc(Cl)s2)n1 [Example 29, 4-(4-(5-chlorothiophen-2-yl)-6-isopropyl-1,3,5-triazin-2-ylamino)benzoic acid]
< 1000 | CCc1nc(Nc2ccc(C(=O)O)cc2)nc(-c2ccc(Cl)s2)n1 [Example 30, 4-(4-(5-chlorothiophen-2-yl)-6-ethyl-1,3,5-triazin-2-ylamino)benzoic acid]
> 1000 | Cc1nc(Nc2ccc(C(=O)O)cc2)nc(-c2ccc(Cl)s2)n1 [Example 31, 4-(4-(5-chlorothiophen-2-yl)-6-methyl-1,3,5-triazin-2-ylamino)benzoic acid]
> 1000 | CCCc1nc(Nc2ccc(CC(=O)O)cc2)nc(-c2ccc(Cl)s2)n1 [Example 32, 2-(4-((4-(5-chlorothiophen-2-yl)-6-propyl-1,3,5-triazin-2-yl)amino)phenyl)acetic acid]
> 1000 | CCCc1nc(Nc2ccc(C(=O)O)cc2)nc(-c2ccc(Cl)s2)n1 [Example 33, 4-((4-(5-chlorothiophen-2-yl)-6-propyl-1,3,5-triazin-2-yl)amino)benzoic acid]
> 1000 | O=C(O)Cc1ccc(Nc2nc(-c3ccc(Cl)s3)nc(C3CC3)n2)cc1 [Example 34, 2-(4-(4-(5-chlorothiophen-2-yl)-6-cyclopropyl-1,3,5-triazin-2-ylamino)phenyl)acetic acid]
> 1000 | COC(=O)Cc1ccc(Nc2nc(Cl)nc(-c3ccc(Cl)s3)n2)cc1 [Example 35, methyl 2-(4-((4-chloro-6-(5-chlorothiophen-2-yl)-1,3,5-triazin-2-yl)amino)phenyl)acetate]
> 1000 | O=C(O)Cc1ccc(Nc2nc(-c3cccc(Cl)c3)nc(C3CC3)n2)cc1 [Example 36, 2-(4-((4-(3-chlorophenyl)-6-cyclopropyl-1,3,5-triazin-2-yl)amino)phenyl)acetic acid]
> 1000 | O=C(O)Cc1ccc(Nc2nc(-c3ccc(Cl)cc3)nc(C3CC3)n2)cc1 [Example 37, 2-(4-((4-(4-chlorophenyl)-6-cyclopropyl-1,3,5-triazin-2-yl)amino)phenyl)acetic acid]
< 1000 | O=C(O)c1ccc(Nc2nc(-c3ccc(Cl)cc3)nc(C3CC3)n2)cc1 [Example 38, 4-((4-(4-chlorophenyl)-6-cyclopropyl-1,3,5-triazin-2-yl)amino)benzoic acid]
< 1000 | O=C(O)c1ccc(Nc2nc(-c3cccc(Cl)c3)nc(C3CC3)n2)cc1 [Example 41, 4-((4-(3-chlorophenyl)-6-cyclopropyl-1,3,5-triazin-2-yl)amino)benzoic acid]
> 1000 | O=C(O)Cc1ccc(Oc2nc(-c3cccc(Cl)c3)nc(C3CC3)n2)cc1 [Example 43, 2-(4-((4-(3-chlorophenyl)-6-cyclopropyl-1,3,5-triazin-2-yl)oxy)phenyl)acetic acid]
< 1000 | CCc1nc(Nc2ccc(C#N)cc2)nc(-c2cccc(Cl)c2)n1 [Example 51, 4-(4-(3-chlorophenyl)-6-ethyl-1,3,5-triazin-2-ylamino)benzonitrile]
< 1000 | CCc1nc(Nc2ccc(CC#N)cc2)nc(-c2cccc(Cl)c2)n1 [Example 52, 2-(4-(4-(3-chlorophenyl)-6-ethyl-1,3,5-triazin-2-ylamino)phenyl)acetonitrile]
< 1000 | CCc1nc(Nc2ccc(CC(N)=O)cc2)nc(-c2cccc(Cl)c2)n1 [Example 57, 2-(4-(4-(3-chlorophenyl)-6-ethyl-1,3,5-triazin-2-ylamino)phenyl)acetamide]
< 1000 | CCc1nc(Nc2ccc(CCO)cc2)nc(-c2cccc(Cl)c2)n1 [Example 58, 2-(4-(4-(3-chlorophenyl)-6-ethyl-1,3,5-triazin-2-ylamino)phenyl)ethanol]
> 1000 | CCc1nc(Oc2ccc(CC(N)=O)cc2)nc(-c2cccc(Cl)c2)n1 [Example 61, 2-(4-((4-(3-chlorophenyl)-6-ethyl-1,3,5-triazin-2-yl)oxy)phenyl)acetamide]
< 1000 | CCc1nc(Nc2ccc(C(N)=O)cc2)nc(-c2cccc(Cl)c2)n1 [Example 62, 4-(4-(3-chlorophenyl)-6-ethyl-1,3,5-triazin-2-ylamino)benzamide]
< 1000 | CCc1cc(Cc2ccc(CC(N)=O)cc2)nc(-c2cccc(Cl)c2)n1 [Example 65, 2-(4-((2-(3-Chlorophenyl)-6-ethylpyrimidin-4-yl)methyl)phenyl)acetamide]

SMILES | IC50 [nM]
OCCc1ccc(Nc2cc(-c3cccc(Cl)c3)nc3c2CCC3)cc1 [Example 6, 2-[4-[[2-(3-Chlorophenyl)-6,7-dihydro-5H-cyclopenta[b]pyridin-4-yl]amino]phenyl]ethanol] | > 1000
O=C(O)Cc1ccc(Nc2nc(-c3ccc(Cl)s3)nc3c2CCC3)cc1 [Example 9, 2-[4-[[2-(5-Chloro-2-thienyl)-6,7-dihydro-5H-cyclopenta[d]pyrimidin-4-yl]amino]phenyl]acetic acid] | > 1000
O=C(O)Cc1ccc(Nc2nc(-c3cccc(Cl)c3)nc3c2CCC3)cc1 [Example 10, 2-[4-[[2-(3-Chlorophenyl)-6,7-dihydro-5H-cyclopenta[d]pyrimidin-4-yl]amino]phenyl]acetic acid] | > 1000
CC(=O)NC(C(=O)O)c1ccc(Nc2nc(-c3ccc(Cl)s3)nc3c2CCC3)cc1 (stereo not drawn) [Example 11, 2-Acetamido-2-[4-[[2-(5-chloro-2-thienyl)-6,7-dihydro-5H-cyclopenta[d]pyrimidin-4-yl]amino]phenyl]acetic acid] | > 1000
NC(C(=O)O)c1ccc(Nc2nc(-c3ccc(Cl)s3)nc3c2CCC3)cc1 (stereo not drawn) [Example 12, 2-Amino-2-[4-[[2-(5-chloro-2-thienyl)-6,7-dihydro-5H-cyclopenta[d]pyrimidin-4-yl]amino]phenyl]acetic acid hydrochloride] | > 1000
O=C(O)CCc1ccc(Nc2nc(-c3ccc(Cl)s3)nc3c2CCC3)cc1 [Example 15, 3-[4-[[2-(5-Chloro-2-thienyl)-6,7-dihydro-5H-cyclopenta[d]pyrimidin-4-yl]amino]phenyl]propanoic acid] | > 1000
O=C(O)CCc1ccc(Nc2nc(-c3cccc(Cl)c3)nc3c2CCC3)cc1 [Example 16, 3-[4-[[2-(3-Chlorophenyl)-6,7-dihydro-5H-cyclopenta[d]pyrimidin-4-yl]amino]phenyl]propanoic acid] | > 1000
N#CCc1ccc(Nc2nc(-c3cccc(Cl)c3)nc3c2CCC3)cc1 [Example 19, 2-[4-[[2-(3-chlorophenyl)-6,7-dihydro-5H-cyclopenta[d]pyrimidin-4-yl]amino]phenyl]acetonitrile] | > 1000
NC(=O)Cc1ccc(Nc2nc(-c3ccc(Cl)s3)nc3c2CCC3)cc1 [Example 20, 2-[4-[[2-(5-chloro-2-thienyl)-6,7-dihydro-5H-cyclopenta[d]pyrimidin-4-yl]amino]phenyl]acetamide] | < 1000
NC(=O)Cc1ccc(Nc2nc(-c3cccc(Cl)c3)nc3c2CCC3)cc1 [Example 21, 2-[4-[[2-(3-chlorophenyl)-6,7-dihydro-5H-cyclopenta[d]pyrimidin-4-yl]amino]phenyl]acetamide] | > 1000
CCc1nc(Nc2ccc(CC(=O)O)cc2)nc(-c2cccc(Cl)c2)n1 [Example 39, 2-(4-((4-(3-chlorophenyl)-6-ethyl-1,3,5-triazin-2-yl)amino)phenyl)acetic acid] | > 1000
CCc1nc(Nc2ccc(C(=O)O)cc2)nc(-c2cccc(Cl)c2)n1 [Example 40, 4-((4-(3-chlorophenyl)-6-ethyl-1,3,5-triazin-2-yl)amino)benzoic acid] | < 1000
CCc1cc(Cc2ccc(CC(=O)O)cc2)nc(-c2cccc(Cl)c2)n1 [Example 66, 2-(4-((2-(3-chlorophenyl)-6-ethylpyrimidin-4-yl)methyl)phenyl)acetic acid] | > 1000
